As a reminder, the Ki is a dissociation constant, usually derived from enzyme kinetics or from competition with a known ligand. High values mean lower affinity, low ones higher affinity.

Where “and” joins values, the source holds several entries; their conditions need not be identical. Equal entries are not always repeated.

Experiment [1] deals with T1, 5-hydroxytryptamine receptor 3A (Rattus norvegicus, UniProt P35563).
T1 sequence (P35563 whole entry): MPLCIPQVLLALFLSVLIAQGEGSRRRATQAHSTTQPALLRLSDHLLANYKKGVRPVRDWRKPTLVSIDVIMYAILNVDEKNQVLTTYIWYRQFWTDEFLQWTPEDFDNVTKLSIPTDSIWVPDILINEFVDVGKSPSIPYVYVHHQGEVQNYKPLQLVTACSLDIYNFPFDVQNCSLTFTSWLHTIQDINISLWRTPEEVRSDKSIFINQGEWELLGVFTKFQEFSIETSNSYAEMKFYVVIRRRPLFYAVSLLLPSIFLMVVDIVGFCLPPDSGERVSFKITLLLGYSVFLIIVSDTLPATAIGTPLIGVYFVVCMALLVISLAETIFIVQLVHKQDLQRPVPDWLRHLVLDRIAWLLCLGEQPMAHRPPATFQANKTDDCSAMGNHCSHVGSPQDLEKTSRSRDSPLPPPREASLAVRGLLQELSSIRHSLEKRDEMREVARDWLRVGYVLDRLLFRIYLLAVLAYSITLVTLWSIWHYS

In experiment [2] the target is T2, Alpha-1A adrenergic receptor (Rattus norvegicus, UniProt P43140).
T2 sequence (P43140 whole entry): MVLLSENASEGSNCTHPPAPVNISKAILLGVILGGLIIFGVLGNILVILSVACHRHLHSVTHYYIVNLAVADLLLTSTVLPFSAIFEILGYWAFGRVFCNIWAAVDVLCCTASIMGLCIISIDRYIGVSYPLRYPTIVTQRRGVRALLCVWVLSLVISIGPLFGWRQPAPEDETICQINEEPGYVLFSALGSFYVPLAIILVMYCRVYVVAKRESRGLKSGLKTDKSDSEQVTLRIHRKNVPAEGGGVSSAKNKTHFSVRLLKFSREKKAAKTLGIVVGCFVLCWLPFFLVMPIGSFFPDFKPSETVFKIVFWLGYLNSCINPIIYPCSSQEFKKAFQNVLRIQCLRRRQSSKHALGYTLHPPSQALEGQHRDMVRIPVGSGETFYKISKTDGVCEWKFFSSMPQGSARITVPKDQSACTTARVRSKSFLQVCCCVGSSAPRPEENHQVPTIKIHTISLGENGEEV

Experiment [3] addresses 5-hydroxytryptamine receptor 4 (Rattus norvegicus, UniProt Q62758).
Experiment [4] deals with 5-hydroxytryptamine receptor 1D (Rattus norvegicus, UniProt P28565).
Experiment [5] deals with T3, 5-hydroxytryptamine receptor 2C (Rattus norvegicus, UniProt P08909).
T3 sequence (P08909 whole entry): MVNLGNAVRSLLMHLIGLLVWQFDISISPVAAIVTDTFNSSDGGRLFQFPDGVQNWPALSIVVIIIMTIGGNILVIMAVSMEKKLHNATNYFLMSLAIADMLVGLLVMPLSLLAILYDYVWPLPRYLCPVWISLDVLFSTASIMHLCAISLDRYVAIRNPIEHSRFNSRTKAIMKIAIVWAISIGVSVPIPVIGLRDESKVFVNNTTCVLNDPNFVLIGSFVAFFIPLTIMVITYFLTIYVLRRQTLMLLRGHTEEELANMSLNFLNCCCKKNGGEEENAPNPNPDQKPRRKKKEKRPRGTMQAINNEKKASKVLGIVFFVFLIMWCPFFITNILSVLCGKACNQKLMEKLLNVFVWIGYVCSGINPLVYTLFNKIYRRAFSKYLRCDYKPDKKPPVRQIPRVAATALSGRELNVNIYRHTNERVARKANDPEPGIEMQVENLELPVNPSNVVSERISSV

Experiment [6] deals with T4, 5-hydroxytryptamine receptor 1A (Rattus norvegicus, UniProt P19327).
T4 sequence (P19327 whole entry): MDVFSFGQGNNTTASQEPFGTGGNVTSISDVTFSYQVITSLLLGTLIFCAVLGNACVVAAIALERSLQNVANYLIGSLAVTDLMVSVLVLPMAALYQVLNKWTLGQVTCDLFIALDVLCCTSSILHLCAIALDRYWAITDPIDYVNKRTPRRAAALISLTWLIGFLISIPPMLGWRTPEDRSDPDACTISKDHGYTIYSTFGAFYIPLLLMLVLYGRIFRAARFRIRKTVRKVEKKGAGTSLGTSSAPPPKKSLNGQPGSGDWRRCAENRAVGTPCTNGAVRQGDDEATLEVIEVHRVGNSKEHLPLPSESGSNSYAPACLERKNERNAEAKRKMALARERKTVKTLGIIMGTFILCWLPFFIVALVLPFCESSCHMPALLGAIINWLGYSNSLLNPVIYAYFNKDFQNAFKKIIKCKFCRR

Experiment [7] has as its target 5-hydroxytryptamine receptor 1B (Rattus norvegicus, UniProt P28564).

Chain of 5-hydroxytryptamine receptor 4 (Q62758 whole entry): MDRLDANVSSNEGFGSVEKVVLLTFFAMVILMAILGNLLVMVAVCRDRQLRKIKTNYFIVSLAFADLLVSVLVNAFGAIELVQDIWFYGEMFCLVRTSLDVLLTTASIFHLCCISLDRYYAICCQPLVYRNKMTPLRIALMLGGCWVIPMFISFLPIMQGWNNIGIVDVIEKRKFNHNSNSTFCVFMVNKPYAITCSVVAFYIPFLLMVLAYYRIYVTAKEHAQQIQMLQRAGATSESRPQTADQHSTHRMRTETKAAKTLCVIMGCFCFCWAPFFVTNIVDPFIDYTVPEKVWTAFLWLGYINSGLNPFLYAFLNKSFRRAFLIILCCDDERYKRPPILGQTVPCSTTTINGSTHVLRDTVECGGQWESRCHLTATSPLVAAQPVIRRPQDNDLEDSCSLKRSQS
Chain of 5-hydroxytryptamine receptor 1D (P28565 whole entry): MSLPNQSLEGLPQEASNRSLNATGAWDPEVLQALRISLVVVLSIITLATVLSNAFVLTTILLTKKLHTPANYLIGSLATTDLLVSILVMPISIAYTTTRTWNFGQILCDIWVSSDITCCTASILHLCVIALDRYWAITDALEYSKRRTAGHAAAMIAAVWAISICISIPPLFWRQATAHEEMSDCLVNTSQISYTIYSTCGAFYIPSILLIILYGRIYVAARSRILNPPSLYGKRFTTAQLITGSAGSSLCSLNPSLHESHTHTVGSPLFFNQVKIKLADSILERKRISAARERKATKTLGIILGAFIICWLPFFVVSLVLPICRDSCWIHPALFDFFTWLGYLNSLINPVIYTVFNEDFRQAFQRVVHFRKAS
Chain of 5-hydroxytryptamine receptor 1B (P28564 whole entry): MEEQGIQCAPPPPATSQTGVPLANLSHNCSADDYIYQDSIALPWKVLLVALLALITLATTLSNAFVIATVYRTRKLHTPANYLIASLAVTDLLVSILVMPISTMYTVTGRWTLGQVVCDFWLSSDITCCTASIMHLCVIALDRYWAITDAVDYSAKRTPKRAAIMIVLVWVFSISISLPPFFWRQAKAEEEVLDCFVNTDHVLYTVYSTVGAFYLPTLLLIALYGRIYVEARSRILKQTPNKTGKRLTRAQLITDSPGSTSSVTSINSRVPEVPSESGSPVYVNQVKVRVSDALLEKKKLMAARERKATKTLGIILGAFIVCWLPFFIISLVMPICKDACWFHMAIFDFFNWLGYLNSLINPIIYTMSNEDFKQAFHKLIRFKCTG

`CN1C2CCC1CC(OC(=O)c1cc(Cl)cc(Cl)c1)C2` (centres undefined) [MDL 72222]: the inhibitory constant (Ki) in experiment [1] amounted to 0.0008 µM.

`COc1cccc(OC)c1OCCNCC1Oc2ccccc2OC1c1ccccc1` (centres undefined) [NSC_185453] gave a Ki in experiment [2] of 0.0003 µM.

As to `CCCN(CCC)C1CCc2cccc(O)c2C1` (centres undefined), the Ki in experiment [1] and in experiment [3] was > 10 µM throughout.

As for `O=C1CC2(CCCC2)CC(=O)N1CCCCN1CCN(c2ncccn2)CC1` [BUSPAR], the inhibition constant (Ki) in experiment [1], in experiment [3] and in experiment [4] was > 10 µM each time.

Turning to `CCn1c(=O)n(C(=O)NC2CC3CCC(C2)N3C)c2ccccc21` (centres undefined) [BIMU 1], in experiment [3], the affinity corresponds to a Ki of 0.00019 µM.

`O=c1[nH]c2ccccc2n1CCN1CCN(c2ccc(C(F)(F)F)cc2)CC1` [CAS_127941]: the inhibitory constant (Ki) was 3.98 µM in experiment [5]; > 10 µM in experiment [1]; 0.0479 µM and 0.0191 µM in experiment [6]; > 10 µM in experiment [3]; 2.09 µM in experiment [7]; 2.51 µM in experiment [4].

Values taken from BindingDB's records for doi:10.1007/bf00168557 (Boehringer Ingelheim Italia, 1995).
